Experimental findings from PubChem BioAssay (NCI) are described below.

Some test systems named below: 786-0 renal; NCI-H226 lung; TK-10 renal; SK-MEL-2 melanoma; U251 CNS; IGROV1 ovarian; HCT-116 colon; A498 renal; MOLT-4 leukemia; M14 melanoma.
Experiment in all cases: inhibition of tumour cell growth, NCI panel, 48 h

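96-well plates; 48 h exposure; 5 concentrations. Endpoints by linear interpolation between flanking doses. Not reached: highest tested concentration assigned. GI50 is the concentration that inhibits growth by half. Definition used: TGI = concentration required for complete inhibition of growth.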

Consider `CCn1ccc(NS(=O)(=O)c2ccc(N)cc2)nc1=O`, for which the GI50 in the experiment on 786-0 renal, in the experiment on NCI-H226 lung, with TK-10 renal, with SK-MEL-2 melanoma, in the experiment with U251 CNS and in the experiment with IGROV1 ovarian was above 100 µM each time. Besides, the GI50 with HCT-116 colon, with A498 renal, in the experiment with MOLT-4 leukemia and with M14 melanoma was above 100 µM each time. The TGI with 786-0 renal, in the experiment with NCI-H226 lung, with TK-10 renal, with SK-MEL-2 melanoma, in the experiment on U251 CNS and in the experiment with IGROV1 ovarian was above 100 µM in each case. For the same compound, the TGI in the experiment with HCT-116 colon, with A498 renal, in the experiment with MOLT-4 leukemia and with M14 melanoma was above 100 µM throughout.
With `C[C@@H](Oc1cc(-n2cnc3ccc(OC[C@@H](O)CO)cc32)sc1C(N)=O)c1ccccc1Cl`, the GI50 in the experiment on 786-0 renal is 0.669 µM; in the experiment on NCI-H226 lung, 2.82 µM; with TK-10 renal, 0.894 µM; in the experiment on SK-MEL-2 melanoma, 4.76 µM; in the experiment with U251 CNS it was 0.126 µM; with IGROV1 ovarian, 0.214 µM. Also, the GI50 in the experiment with HCT-116 colon was 0.116 µM; in the experiment with A498 renal, 0.148 µM; with MOLT-4 leukemia, 0.095 µM; in the experiment with M14 melanoma, 0.0993 µM. Also, the TGI in the experiment with 786-0 renal was above 25 µM; in the experiment with NCI-H226 lung it was above 25 µM; with TK-10 renal, 10.7 µM; with SK-MEL-2 melanoma, 11.1 µM; with U251 CNS, above 25 µM; in the experiment with IGROV1 ovarian, above 25 µM. Moreover, the TGI with HCT-116 colon is above 25 µM; with A498 renal it was 1.2 µM; in the experiment on MOLT-4 leukemia, 7.47 µM; with M14 melanoma, above 25 µM.
In the case of `O=C1C=CC2(C=C1)C[C@H](NC(=O)OCc1ccccc1)C(=O)O2`, the TGI is 27.6 µM in the experiment with 786-0 renal; above 86.7 µM with NCI-H226 lung; 32.4 µM in the experiment on TK-10 renal; 40 µM in the experiment with SK-MEL-2 melanoma; 37.1 µM in the experiment with U251 CNS; 38.1 µM with IGROV1 ovarian. For the same compound, the TGI with HCT-116 colon is 40.3 µM; with A498 renal, above 100 µM; in the experiment on MOLT-4 leukemia, 15.3 µM; in the experiment with M14 melanoma, 32.6 µM.
In the case of `CCc1cccc(C)c1NC(=S)NC(=O)c1ccccc1C(=O)NC(=S)Nc1c(C)cccc1CC`, the TGI in the experiment with 786-0 renal, in the experiment on NCI-H226 lung, in the experiment with TK-10 renal, in the experiment on SK-MEL-2 melanoma, in the experiment on U251 CNS and in the experiment on IGROV1 ovarian was above 100 µM in each case. In addition, the TGI in the experiment on HCT-116 colon, in the experiment on A498 renal, in the experiment with MOLT-4 leukemia and in the experiment with M14 melanoma was above 100 µM throughout.
Take `C[CH2][Sn]([CH2]C)([O]C(=O)c1ccc(OC)c(OC)c1OC)[O]C(=O)c1ccc(OC)c(OC)c1OC`: the GI50 in the experiment with 786-0 renal is 58.6 µM; with NCI-H226 lung, 19.7 µM; with TK-10 renal it was 52.6 µM; with SK-MEL-2 melanoma it was 28.7 µM; in the experiment on U251 CNS, above 75.8 µM; in the experiment on IGROV1 ovarian, above 100 µM. Moreover, the GI50 is above 100 µM with HCT-116 colon, 16.3 µM with A498 renal, 34.1 µM in the experiment with MOLT-4 leukemia and 61.9 µM in the experiment with M14 melanoma. For the same compound, the TGI was above 100 µM in the experiment on 786-0 renal; 46 µM with NCI-H226 lung; above 68.2 µM with TK-10 renal; 81.7 µM in the experiment with SK-MEL-2 melanoma; above 100 µM in the experiment with U251 CNS; above 100 µM in the experiment with IGROV1 ovarian. For the same compound, the TGI with HCT-116 colon is above 100 µM; with A498 renal, 44 µM; in the experiment on MOLT-4 leukemia, above 100 µM; in the experiment with M14 melanoma, above 100 µM.
Consider `C#Cc1cccc(NC(=O)c2ccc(NC(=O)CCl)cc2)c1`, for which the GI50 was 14.6 µM with 786-0 renal; 48.7 µM in the experiment on NCI-H226 lung; 42.7 µM in the experiment on TK-10 renal; 69.8 µM in the experiment on SK-MEL-2 melanoma; 14.9 µM in the experiment with U251 CNS; 10.6 µM in the experiment on IGROV1 ovarian. Further, the GI50 with HCT-116 colon was 11.9 µM; in the experiment with A498 renal, above 82.5 µM; with MOLT-4 leukemia, 12.4 µM; in the experiment on M14 melanoma, 22.2 µM. Also, the TGI with 786-0 renal is 29.8 µM; in the experiment on NCI-H226 lung, above 82.5 µM; in the experiment with TK-10 renal it was above 82.5 µM; in the experiment with SK-MEL-2 melanoma it was above 82.5 µM; in the experiment with U251 CNS, 34.8 µM; in the experiment with IGROV1 ovarian, 23.7 µM. Further, the TGI is 36.3 µM in the experiment on HCT-116 colon, above 82.5 µM in the experiment on A498 renal, 40 µM in the experiment with MOLT-4 leukemia and above 82.5 µM in the experiment with M14 melanoma.
In the case of `Cc1ccc(S(=O)(=O)N2CCc3ccc(O)c4c3C2Cc2ccc3c(c2-4)OCO3)cc1` (stereo not given), the GI50 in the experiment on 786-0 renal was 0.894 µM; with NCI-H226 lung it was 4.71 µM; with TK-10 renal it was 3.48 µM; with SK-MEL-2 melanoma it was 1.34 µM; in the experiment with U251 CNS, 0.464 µM; in the experiment on IGROV1 ovarian, 0.708 µM. The GI50 in the experiment with HCT-116 colon is 0.451 µM; in the experiment on A498 renal, 0.898 µM; in the experiment on MOLT-4 leukemia it was 2.42 µM; with M14 melanoma it was 0.511 µM. Moreover, the TGI in the experiment with 786-0 renal came to 20.8 µM; in the experiment with NCI-H226 lung it was 34.3 µM; in the experiment on TK-10 renal, 29.2 µM; with SK-MEL-2 melanoma, 7.33 µM; in the experiment with U251 CNS, 5.92 µM; in the experiment on IGROV1 ovarian it was 14.2 µM. The TGI with HCT-116 colon was found to be 10.6 µM; in the experiment on A498 renal, 7.09 µM; in the experiment with MOLT-4 leukemia it was 20.3 µM; with M14 melanoma it was 3.86 µM.
As to `CCOC(=O)C(=O)Nc1ccccc1C(C)C`, the TGI in the experiment with 786-0 renal, in the experiment with NCI-H226 lung, in the experiment on TK-10 renal, in the experiment with SK-MEL-2 melanoma, in the experiment on U251 CNS and in the experiment with IGROV1 ovarian was above 100 µM each time. Further, the TGI in the experiment with HCT-116 colon, with A498 renal, in the experiment on MOLT-4 leukemia and in the experiment on M14 melanoma was above 100 µM each time.
Take `FC(F)(F)c1cc(Nc2ccc3cc(OCCCN4CCOCC4)ccc3n2)ccc1Cl`: the GI50 with 786-0 renal was 1.3 µM; with NCI-H226 lung, 2.56 µM; in the experiment on TK-10 renal it was 2.64 µM; with SK-MEL-2 melanoma, 1.99 µM; in the experiment with U251 CNS, 1.27 µM; in the experiment on IGROV1 ovarian, 2.62 µM. Further, the GI50 is 1.65 µM in the experiment on HCT-116 colon, 1.47 µM with A498 renal, 2.16 µM in the experiment with MOLT-4 leukemia and 1.71 µM with M14 melanoma. For the same compound, the TGI with 786-0 renal came to 2.81 µM; in the experiment on NCI-H226 lung it was 11.7 µM; in the experiment on TK-10 renal it was 5.86 µM; in the experiment on SK-MEL-2 melanoma, 3.88 µM; in the experiment on U251 CNS, 2.75 µM; in the experiment on IGROV1 ovarian, 7.49 µM. Further, the TGI is 3.14 µM in the experiment with HCT-116 colon, 6.27 µM in the experiment with A498 renal, 6.82 µM in the experiment on MOLT-4 leukemia and 3.66 µM with M14 melanoma.
Take `CCN=C(C#N)NCC`: the TGI in the experiment on 786-0 renal, with NCI-H226 lung, in the experiment on TK-10 renal, with SK-MEL-2 melanoma, in the experiment on U251 CNS and in the experiment on IGROV1 ovarian was above 100 µM in each case. For the same compound, the TGI in the experiment on HCT-116 colon, in the experiment on A498 renal, in the experiment on MOLT-4 leukemia and with M14 melanoma was above 100 µM throughout.
As for `Cc1cc(Cl)cc(Cc2cc(Cl)cc(C)c2O)c1O`, the GI50 in the experiment with 786-0 renal was 2.48 µM; in the experiment on NCI-H226 lung, 4.17 µM; with TK-10 renal, 3.97 µM; with SK-MEL-2 melanoma, 2.6 µM; in the experiment on U251 CNS it was 2.93 µM; in the experiment with IGROV1 ovarian it was 5.18 µM. For the same compound, the GI50 is 2.13 µM with HCT-116 colon, 3.05 µM in the experiment with A498 renal, 3.45 µM in the experiment on MOLT-4 leukemia and 2.98 µM in the experiment with M14 melanoma. Moreover, the TGI in the experiment with 786-0 renal worked out at 7.76 µM; with NCI-H226 lung, 20.1 µM; in the experiment with TK-10 renal, 12 µM; in the experiment with SK-MEL-2 melanoma, 5.73 µM; in the experiment on U251 CNS, 11.3 µM; in the experiment on IGROV1 ovarian, 29.5 µM. Also, the TGI was 5.54 µM in the experiment on HCT-116 colon, 14.1 µM in the experiment on A498 renal, 49.8 µM in the experiment with MOLT-4 leukemia and 11.3 µM with M14 melanoma.
